Experimental findings from patent US20080275028A1 (priority 2004, published 2008) are described below.

The assay addresses T1, alpha7 nicotinic acetylcholine receptor (Rattus norvegicus, UniProt Q05941).
T1 construct: expressed in transfected cells
Nature of the assay: Functional FLIPR assay (calcium), alpha7 nAChR stably expressed in GH4C1 cells. Format: cell-based. The conditions noted are these: agonist, concentration range 0.001 to 30 microM.

T1 sequence (Q05941 23-502): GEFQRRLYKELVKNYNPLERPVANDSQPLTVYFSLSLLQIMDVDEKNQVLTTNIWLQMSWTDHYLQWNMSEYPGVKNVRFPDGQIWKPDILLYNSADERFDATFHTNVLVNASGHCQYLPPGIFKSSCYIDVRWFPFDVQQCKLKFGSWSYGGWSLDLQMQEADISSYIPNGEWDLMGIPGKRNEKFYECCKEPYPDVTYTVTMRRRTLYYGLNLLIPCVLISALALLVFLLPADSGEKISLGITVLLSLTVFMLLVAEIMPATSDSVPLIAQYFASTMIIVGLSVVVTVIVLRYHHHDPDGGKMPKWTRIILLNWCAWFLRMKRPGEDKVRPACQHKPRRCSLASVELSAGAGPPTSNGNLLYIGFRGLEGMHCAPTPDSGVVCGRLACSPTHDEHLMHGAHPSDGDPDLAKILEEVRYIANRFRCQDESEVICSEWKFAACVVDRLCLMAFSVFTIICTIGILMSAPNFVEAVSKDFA
Text: Rat GH4C1 cells were then transfected with the rat receptor, cloned and analyzed for functional alpha7 nicotinic receptor expression employing a FLIPR assay to measure changes in intracellular calcium concentrations.
The FLIPR system allows the measurements of real time Ca^2+-concentration changes in living cells using a Ca^2+ sensitive fluorescence dye (such as Fluo4). This instrument enables the screening for agonists and antagonists for alpha 7 nAChR channels stably expressed in GH4C1cells.
GH4C1 cells stably transfected with rat-alpha7-nAChR (see above) were used. These cells are poorly adherent and therefore pretreatment of flasks and plates with poly-D-lysine was carried out. Cells are grown in 150 cm^2 T-flasks, filled with 30 ml of medium at 37° C. and 5% CO2.
EC50 and IC50 values were calculated using the IDBS XLfit4.1 software package employing a sigmoidal concentration-response (variable slope) equation:
Y=Bottom+((Top-Bottom)/(1+((EC50/X) ̂ HillSlope))
The compounds were tested using the functional FLIPR primary screening assay employing the stable recombinant GH4C1 cell line expressing the alpha7 nAChR. Hits identified were validated further by generation of concentration-response curves.

The term EC50 denotes the midpoint of the concentration-response curve. Take `C[N+]1(C)CCN(c2ccccc2)CC1` [DMPP]: the EC50 came to 980 ± 470 nM.
